Measured values taken from patent US11459313B2, “Aziridinyl and amino dimeric naphthoquinone compounds and use for acute myeloid leukemia” (University of Maryland, Baltimore, priority 2016, dated 2022).
“Also recorded” adds a separate entry of the source.

How the values were obtained:
Assay type in all cases: cell-based, human
MOLM-14 cells [1] = test: Gamma-H2Ax immunofluorescence assay, MOLM-14; settings: 24 hours; 200 nM, 1.0 and 2.0 μM
Experimental: MOLM-14 cells were seeded in the afternoon and the following morning treated with DMSO, or aziridinyl-dimeric naphthoquinone Compound 101 at 1×, 5×; or 10× IC50 concentrations. Cells were harvested at 24 and 48 hours. Briefly, cells were washed twice with PBS, counted, and resuspended into PBS/2% FBS. Approximately 150,000 cells were pelleted on Superfrost® microslides (Thermo Fisher Scientific®) using a cytospin machine (Thermo Fisher Scientific®) for 10 minutes at 800 RPM. Slides were air-dried for 5 minutes, then fixed in 4% paraformaldehyde for 15 minutes, washed with PBS 3 times, each time for 5 minutes and permeabilized with permeabilization buffer (50 mM NaCl, 3 mM MgCl2, 10 mM HEPES, 200 mM sucrose, and 0.5% Triton-X-100) for 10 minutes. After overnight blocking in PBS/10% FBS, slides were washed 3 times, each time for 5 minutes with wash buffer (PBS, 1% BSA, and 0.1% Triton-X-100), stained with 1:100 anti-phosphohistone H2Ax antibody (Millipore®), washed with wash buffer again 3 times, each time for 5 minutes, and stained with 1:200 goat anti-mouse IgG, Dylight 594® (Thermo Scientific®), washed 3 times, each time for 5 minutes with wash buffer, and mounted with Vectashield® mounting medium with 4′,6-diamidino-2-phenylindole (DAPI, Vector Labs®). Slides sat overnight and were sealed the following day with clear nail polish. […]

THP-1 cells [2] = test: Clonogenic assay, THP-1; settings: 24 hours exposure, then methylcellulose; p<0.05 at 1, 10 and 100 μM
Experimental: MOLM-14 and THP-1 were treated with either DMSO control or mono-aziridine dimeric naphthoquinone or bis-aziridinyl dimeric naphthoquinone compounds at concentrations of 0.1, 1, 10 and 100 μM (micromolar) for 24 hours. The cells then were washed with growth medium and resuspended in growth medium and methylcellulose with or without DMSO or the treatment compounds. After 7 or 13 days (MOLM-14 or THP-1, respectively), treatment was terminated by addition of 1.0 mg/mL, iodonitrotetrazolium chloride (INT; Sigma Aldrich®) and read 24 hours later with an automated colony counter (Symbiosis®). Data were analyzed and graphed using GraphPad Prism® software.
Next, the effect of bis-aziridinyl-dimeric naphthoquinone Compound 101 on AML cell survival and viability. […] For colony formation assays, cell lines were treated with the indicated doses of aziridinyl dimeric naphthoquinone Compound 101 for 24 hours, and subsequently washed and plated in methylcellulose to observe clonogenic potential after 7-10 days. See above for additional comments on the methods.
Clonogenic inhibition was […] when bis-aziridinyl dimeric naphthoquinone was removed from cells after 24 hours of treatment. The bis-aziridinyl dimeric naphthoquinone was able to reduce clonogenicity with just a 24-hour exposure prior to plating.

MOLM-14 cells [3] = test: Cellular reactive oxygen species (H2DCFA), MOLM-14
Experimental: (§1) MOLM-14 and THP-1 cells in logarithmic growth phase were centrifuged and resuspended in PBS at one million cells per milliliter (mL) of medium. Cells were preloaded with 2′,7′-dichlorodihydrofluorescein diacetate (H2DCFA, Life Technologies®) at a final concentration of 2 μM and incubated at 37° C. in the dark for 25 minutes. Cells were centrifuged and resuspended at one million per mL in phenol red-free RPMI plus 10% FBS and incubated at 37° C. in the dark for 25 minutes. Treatments were prepared at 2× concentrations of […] in complete phenol red-free RPMI and added to each well to yield 1× concentrations of 20, 10, 2, or 0.5 μM. Cells were incubated in the dark at 37° C. and measurement of ROS was performed with a Bio-tek® Synergy HT plate reader at various time points post treatment.
(§2) In order to elucidate the mechanisms by which the bis-aziridinyl naphthoquinone exerts anti-leukemic activity, the amount of reactive oxygen species (ROS) that cells produced upon treatment with Compound 101 was examined. MOLM-14 and THP-1 cells were loaded with the ROS dye H2DCFA and subsequently plated into 96-well plates. Cells were treated with vehicle (negative control), Compound 101 in varying concentrations, or hydrogen peroxide (positive control), and observed over a period of 2-6 hours. The relative fluorescence units (RFU) were read at various time points. […]

THP-1 cells [4] = test: Cellular reactive oxygen species (H2DCFA), THP-1
Experimental: as §1, §2

## O=C1C(C2=C(N3CC3)C(=O)c3ccccc3C2=O)=C(N2CC2)C(=O)c2ccccc21 [Compound 101, 3,3′-di(aziridin-1-yl)-[2,2′-binaphthalene]-1,1 4,4′-tetrone]
MOLM-14 cells [1]
  γ-H2Ax phosphorylation (double-stranded DNA breaks), MOLM-14: substantial γ-H2Ax phosphorylation
THP-1 cells [2]
  clonogenic activity (colony formation), THP-1: marked reduction in clonogenic activity; also recorded: inhibits clonogenicity
MOLM-14 cells [3]
  time to production of ROS, MOLM-14: ≤ 2 h
MOLM-14 cells [3]; 0.5-20 μM, 2-6 hours
  ROS production, MOLM-14: dose-dependent increase in ROS production
THP-1 cells [4]
  time to production of ROS, THP-1: ≤ 2 h
THP-1 cells [4]; 0.5-20 μM, 2-6 hours
  ROS production, THP-1: dose-dependent increase in ROS production
